# Test results as given in patent publication US8987449B2, “Medicine for treating ischemic brain injury and its sequelae, and preparation method thereof” (Haimin Lei, priority 2011, dated 2015).
# Columns and labels:
# [1] = test system: chicken chorioallantoic membrane (CAM); assay: Effect of LQC-T on CAM angiogenesis (CAM method, vessel count); type: in vivo; details: 20 μg/chicken embryo; for small vessel angiogenesis of CAM model, Medicine group (X ± S): 72 h incubation, number of small vessels, blank group 8.67 ± 1.03
# Description: Embryonated chicken eggs of Lohmann of German, egg weight 50-60 g (embryo experiment center of Chinese Agriculture University)
# LQC-T (1-6) (prepared by the methods of examples 2-7), wherein the purity was ≧98%, determined by high performance liquid chromatography (HPLC), meeting the requirements of the experiment. The powder was carefully sealed and preserved at 4° C.
# Aseptic gelatin sponge, which was made into a wafer having a diameter of 5 mm by a hole-puncher in advance, was used as sample carrier. The prepared LQC-T series compounds were added according to 20 μg/chicken embryo in an aseptic environment. The 0.9% physiological saline was used in a blank group. The samples were air-dried in an aseptic environment.
# A hatching egg after disinfection was put into a 37° C. incubation box with air sac upward until the seventh day of incubation. The egg embryo was disinfected using alcohol at a super clean bench, and then a small hole was drilled at the top of the egg embryo using a dental drill, and the nearby egg shell and shell membrane were removed carefully to form the opening with the size of about 1.2 cm×1.2 cm. After spotting the location for applying the sample, the air sac was broken with injection needle at the interface between air sac and the yolk and then 1-2 drops of aseptic physiological saline was injected so that the air sac membrane was separated from CAM membrane. Then the upper air sac membrane was slightly removed with a nipper to expose the lower CAM membrane.
# The medicine-containing carrier was softly put by a nipper at the locations of CAM and yolk cyst membrane with fewer vessels, the opening was then sealed with aseptic transparent tape and incubation was continued for another 72 h.
# After the incubation, the transparent tape blocking the chicken embryo air sac was removed with a nipper. The liquid of equal-volumetrically mixed methanol/acetone 1-2 ml was added and fixed at room temperature for 10 min. The CAM membrane was carefully removed and put it onto a slide. Then it was observed and a photograph was taken. The effect of the compounds on angiogenesis was evaluated by the count analytic method using the numbers of great vessels, medium vessels and small vessels arranged radially around by the carrier.
# All the data were statistically analyzed using SPSS11.0 software pack. The difference between the administration group and the blank group was given through one-way variance analysis. P<0.05 had statistical significance.
# [2] = test system: rat primary cortical neurons; assay: Proliferation of primary neuronal cells by MTT and morphology observation; type: cell-based; details: 60 μM; normal neurons; control 0.7567 ± 0.1109
# Description: SD pregnant rats: pregnant for 16-18 d, certificate number: SCXK (Jing) 2006-0009, provided by BeiJing Vital River Laboratories.
# LQC-T4 (prepared by the method of example 5), the purity was ≧98%, determined by high performance liquid chromatography (HPLC), which met the requirement of the experiment. The powder was carefully sealed and preserved at 4° C. The prepared LQC-T4 was dissolved using dimethyl sulfoxide and made into […] storing liquid for use.
# Referring to the document [HongQingtao, TangYipeng, Neurons of cerebral cortex of newborn rats in in vitro primary culture, Chinese Journal of Neuroanatomy, 1994, 10(3):259-262], the pregnant 16-18 d SD rat was executed by dislocation. The fetal rat was taken out in an aseptic environment, the meninges and blood steak were stripped, the cortex was separated and cut into 1 mm^3 tissue block (all carried out on ice). The tissue block was digested at 37[…] with 0.1% pancreatic enzyme-0.02% EDTA for 20 min. Digesting was stopped using DMEM containing fetal calf serum and the number of the cells was adjusted to 5×10^5 cells ml^−1. The resultant cells were inoculated into a 96 well plate treated by 0.001% polylysine and the plate was put in a 37° C. 5% CO2 incubation box to be cultured. The cultivation liquid was changed (totally) after 48 h and add adenine arabinoside was added (final concentration is 5 μM) to inhibit the excessive proliferation of non-neurons. The cultivation liquid was changed after 48 h with fresh cultivation liquid and culture was continued. And the cultivation liquid was changed every 3 days afterward.
# The cultivation liquid was sucked away on the eighth day of neuron culture. DMEM culture-medium containing 0.15% DMSO was added to the blank group, while 60 μM, 30 μM, 15 μM LQC-T4, 60 μM tetramethylpyrazine and 60 μM vanillic acid were respectively added to the administration group. Ten parallel wells were set as a group. And they were put into a 37° C., 5% CO2 incubation box to continue culturing for 24 h.
# 5 mg/ml MTT 20 μl was added to each well at the time of 4 h before the experiment ended and the cultivation liquid was sucked away. DMSO 200 μl was added to each well. When the purple particles were completely dissolved, the enzyme-linked immune assay was used to measure the optical density at 540 nm.
# (§1) The SAS 8.2 statistical software was used to carry out the one-way ANOVA variance analysis and the difference among the groups were compared by t-test.
# ICR mice = assay: Buccal respiration duration of mice after head cutting (4° C. icy water swimming model); type: in vivo, mouse; details: 80 mg/kg intragastrically once a day for 10 days, control 32.45 ± 5.49
# Description: ICR mice, half female and half male, weighing 19-21 g, certificate No.: SCXK (Jing) 2006-0009, provided by BeiJing Vital River Laboratories.
# LQC-T4, tetramethylpyrazine (TMP), vanillic acid, Nimodipine (ShanDong XinHua Pharmaceutical CO., Ltd, batch No.: 0908164)
# 160 male ICR mice were divided into 8 groups randomly by weight, each of which contained 20 mice, wherein 0.5% CMC-NA (0.2 ml·10 g^−1) was administrated intragastrically to the blank control group; 6.7 mg·kg^−1 Nimodipine (0.2 ml·10 g^−1) was administrated intragastrically to the positive control group; 100 mg·kg^−1 TMP (0.2 ml·10 g^−1) was administrated intragastrically to the TMP group, three different dosage of 200 mg·kg^−1, 100 mg·kg^−1, 50 mg·kg^−1 were administrated intragastrically to the LQC-T4 (0.2 ml·10 g^−1) group relatively, and 125 mg·kg^−1 TMP+80 mg·kg^−1 vanillitc acid (0.2 ml·10 g^−1) was administrated intragastrically respectively. The medicines were continuously administrated once a day for 10 days.
# The literature was referred to: [LiuZhenquan, SunHui, Xuqiuping, etc., Experimental Study on the Brain-Protective Effect of the Effective Fraction of Naoxin Formula in the Mouse Model of with Load-Bearing Swimming in Cold Water, Journal of Beijing University of Traditional Chinese Medicine [J], 2004, 27(4): 54-56] and the method recorded therein was improved. The head was rapidly cut with a scissor at post mortem when the mouse swam in 4° C. icy water for 3 min after the final administration. After head being cut, the buccal respiration duration of mouse was recorded.
# as §1
compound,measurement,setting,value
"Cc1nc(C)c(COC(=O)c2ccc(OCc3nc(C)c(C)nc3C)c(OCc3nc(C)c(C)nc3C)c2)nc1C [LQC-T2, (3,5,6-trimethylpyrazine-2-yl)methyl-3,4-bis((3,5,6-trimethylpyrazine-2-yl)methoxy) benzoate]","small vessel angiogenesis of CAM model, Medicine group (X ± S)",[1],14.17 ± 1.47
same,effect on growth of new (small) vessels compared with the blank group,[1]; result in words,significant promoting effect
"Cc1nc(C)c(COc2ccc(C=O)cc2OCc2nc(C)c(C)nc2C)nc1C [LQC-T5, 3,4-bis((3,5,6-trimethylpyrazine-2-yl)methoxy)benzaldehyde]","small vessel angiogenesis of CAM model, Medicine group (X ± S)",[1],14.17 ± 5.19
"(3,5,6-trimethylpyrazin-2-yl)methyl 4-hydroxy-3-methoxybenzoate [LQC-T1]","small vessel angiogenesis of CAM model, Medicine group (X ± S)",[1],12.7 ± 2.73
"COc1cc(C(=O)O)ccc1O [Vanillic acid, vanillic acid, reference compound]","MTT(A540), 24 h after the administration",[2],0.8820 ± 0.1469
same,respiration duration,ICR mice,35.73 ± 5.66 s
"COc1cc(C(=O)OCc2nc(C)c(C)nc2C)ccc1O [LQC-T3, (3,5,6-trimethylpyrazine-2-yl)methyl-3-methoxy-4-hydroxybenzoate]","small vessel angiogenesis of CAM model, Medicine group (X ± S)",[1],10.4 ± 2.16
Cc1nc(C)c(COC(=O)/C=C/c2ccc(OCc3nc(C)c(C)nc3C)c(OCc3nc(C)c(C)nc3C)c2)nc1C [LQC-T6],"small vessel angiogenesis of CAM model, Medicine group (X ± S)",[1],8.83 ± 3.71
